Assays:
[1] = system: polyglutamine luciferase reporter; test: Screening: polyglutamine luciferase reporter assay in NUGC3 cells (luminescence % of DMSO); assay type: cell-based, human; conditions: NUGC3 cells, luminescence relative to DMSO, concentration not given
Experimental: (§1) Human gastric cancer cell line NUGC3 was cultured in a DMEM medium (high glucose with L-glutamine and phenol red, produced by FUJIFILM Wako Pure Chemical Corporation) containing 10% fetal bovine serum (produced by Thermo Fisher Scientific Inc.) and penicillin-streptomycin (produced by FUJIFILM Wako Pure Chemical Corporation) (this medium is simply referred to below as “DMEM+10% FBS+1×P/S”). Then, the NUGC3 cells were seeded in a 60-mm culture dish (produced by BioLite) so that the cells were 80% confluent after 24 hours. Subsequently, 5 μg of a reporter plasmid and 15 μL of a lipofection reagent (transIT-LT1, produced by Mirus Bio LLC) were mixed in 500 μL of Opti-MEM medium (produced by Thermo Fisher Scientific, Inc.) to form a complex, which was added to the medium in which the NUGC3 cells were cultured in the 60-mm culture dish. For use as the reporter plasmid, 5 μg of a polyglutamine luciferase reporter was introduced (in the polyglutamine luciferase reporter, a Renilla luciferase expressed in the IRES was located as an internal standard downstream of the sequence of a firefly luciferase sequence to which polyglutamine was added). Alternatively, a YAP/TAZ activity reporter was used by simultaneously introducing 3 μg of 8×GTIIC plasmid and 2 μg of a Renilla luciferase reporter as an internal standard. After another 24 hours, the cells were exfoliated with a 0.05 w/v % trypsin-0.53 mmol/l EDTA-4Na solution (produced by FUJIFILM Wako Pure Chemical Corporation), and then seeded in a 96-well plate (produced by BioLite) so that the cells were 80% confluent after 24 hours. Twenty-four hours after seeding in the 96-well plate, the medium in each well was replaced with 100 μL of a medium (DMEM+10% FBS+an antibiotic) containing 10 μM or 5 μM of a compound for evaluation. After another 24 hours, the medium containing the compound was removed, and the 96-well plate was transferred on ice. Each well was washed with 100 μL of phosphate buffer (PBS, produced by FUJIFILM Wako Pure Chemical Corporation). Thereafter, 20 μL of Passive Lysis Buffer (1×) contained in a Dual-Luciferase Reporter Assay System (produced by Promega Corporation) was added. The plate was then gently shaken for 15 minutes at room temperature to lyse the cells. After confirming that the cells were lysed, 10 μL of the lysate was transferred from each well to each corresponding well of a white 96-well plate (produced by Greiner Bio-one). To each well of the white 96-well plate was added 100 μL of a mixture of a Luciferase Assay Buffer II and Luciferase Assay Substrate contained in the Dual-Luciferase Reporter Assay System (produced by Promega Corporation), whereby the luminescence of the firefly luciferase was induced, and the luminescence intensity was detected with a microluminometer (produced by Berthold Japan K.K.). Subsequently, 100 μL of a mixture of Stop & Glo Buffer and Stop & Glo Substrate contained in the Dual-Luciferase Reporter Assay System (produced by Promega Corporation) was added, whereby the luminescence of firefly luciferase was quenched while the luminescence of Renilla luciferase was induced, and the luminescence intensity was detected with a microluminometer (produced by Berthold Japan K.K.) in a manner similar to the above. The ratio of the luminescence intensity of the firefly luciferase and the luminescence intensity of the Renilla luciferase was calculated, and the luminescence intensity (%) of the wells containing each compound was calculated with the luminescence intensity of the well containing DMSO (dimethyl sulfoxide, used as a solvent for the compound liquids) taken as 100%. […] Unless otherwise specified, the measured values in the table represent the results obtained by evaluation with the addition of 10 μM of each compound for evaluation.

YAP/TAZ = test: Screening: YAP/TAZ activity reporter (8xGTIIC plasmid) assay in NUGC3 cells (luminescence % of DMSO); assay type: cell-based, human; conditions: NUGC3 cells, luminescence relative to DMSO, concentration not given
Experimental: as §1

[2] = polyglutamine luciferase reporter
[3] = YAP/TAZ activity reporter (8×GTIIC)

| SMILES | Polyglutamine [1, 2] [%] | 8×GTIIC (YAP/TAZ; [3]) [%] | Polyglutamine [1] [%] | 8×GTIIC (YAP/TAZ) [%] |
| --- | --- | --- | --- | --- |
| Cc1cc(C(C)(C)C)cc(C)c1S(=O)(=O)CC1CCC(C2CC2)CC1 (centres unmarked) [SA053] | 35.39 | 55.02 |  |  |
| Cc1cc(C)c(S(=O)(=O)CC2CC(C)(C)CC(C)(C)C2)cc1C [SA007] | 55.29 | 56.96 |  |  |
| Cc1cccc(C)c1S(=O)(=O)CC1CCC(C2CC2)CC1 (centres unmarked) [SA036] | 71.57 | 57.59 |  |  |
| Cc1cc(C)c(S(=O)(=O)CC2CC(C)(C)SC(C)(C)C2)cc1C [SA023] | 63.47 | 87.74 |  |  |
| CC(=O)C1C=C(c2ccc(C)cc2)CC1c1ccc2ccccc2c1 (centres unmarked) [PZ178] | 60.25 | 119.3 |  |  |
| CCCCCCS(=O)(=O)c1c(C(C)C)cc(C(C)C)cc1C(C)C [PVZF2003] | 41.74 | 75.26 |  |  |
| Cc1ccc(C2=NC(S(=O)(=O)c3ccccc3)C(c3ccccc3C)C2)cc1 (centres unmarked) [PVZF0074] |  |  | 79.16 | 96.63 |
| CCc1cccc(C2CC(c3ccc(C)cc3)=NC2S(=O)(=O)c2ccccc2C)c1CC (centres unmarked) [PVZF0051] |  |  | 40.74 | 36.59 |
| Cc1ccc(C2=NC(S(=O)(=O)c3ccccc3)C(c3ccc(C)cc3)C2)cc1 (centres unmarked) [PVZF0073] |  |  | 60.62 | 86.43 |
| O=S(=O)(CCCC1CCCCC1)c1ccc2ccccc2c1 [PVZF2017] | 66.66 | 58.91 |  |  |
| CCC(C)(C)c1ccc(S(=O)(=O)CCc2ccccc2)cc1 [PVZF2041] | 78.87 | 79.61 |  |  |
| CC(C)(C)c1cccc(S(=O)(=O)C2CCC(CS(=O)(=O)c3ccccc3)CC2)c1 (centres unmarked) [SA016] | 43.01 | 53.02 |  |  |
| CC1(C)CC(CS(=O)(=O)c2ccc(C(C)(C)C)cc2)CC(C)(C)S1 [PVZF2045] | 65.16 | 66.26 |  |  |
| O=S(=O)(CC1CCCC1)c1ccc(C2CCCCC2)cc1 [PVZF2064] | 64 | 75.47 |  |  |
| CCc1ccc(C2=NC(S(=O)(=O)c3ccccc3)C(c3cccc(CC)c3CC)C2)cc1CC (centres unmarked) [PVZF0052] |  |  | 71.62 | 54.38 |
| CCc1cc(C)c(S(=O)(=O)CC2CC(C)(C)CC(C)(C)C2)cc1C [SA010] | 59.61 | 64.43 |  |  |
| CC(C)(C)c1ccc(S(=O)(=O)CC2CCCCC2)cc1 [PVZF2021] | 32.95 | 44.55 |  |  |
| CCc1ccc(C2=CC(C(C)=O)C(c3ccc(CC)c(C)c3)C2)cc1 (centres unmarked) [PZ173] | 67.61 | 160.5 |  |  |
| CCCCCCS(=O)(=O)c1ccc(-c2ccccc2)cc1 [PVZF2029] | 49.5 | 49.28 |  |  |
| CCc1cccc(C2CC(c3ccc(C)cc3)=NC2S(C)(=O)=O)c1CC (centres unmarked) [PVZF0079] |  |  | 53.25 | 79.74 |
| CCc1cccc(C2CC(c3ccc(C)cc3)=NC2S(C)(=O)=O)c1 (centres unmarked) [PVZF0061] |  |  | 69.94 | 121.9 |
| Cc1ccc(C2=NC(S(=O)(=O)c3ccccc3)C(c3ccc(C)cc3)C2)cc1 (centres unmarked) [PVZF0096] |  |  | 73.68 | 103.6 |
| CC(=O)c1cccc(C2CC(c3ccc(C)cc3)=NC2S(=O)(=O)c2ccc(C)cc2)c1 (centres unmarked) [PVZF0095] |  |  | 47.01 | 66.76 |
| CCc1cc(C)c(S(=O)(=O)CC2CC(C)(C)CC(C)(C)C2)cc1C(C)C [SA006] | 37.54 | 40.21 |  |  |
| CCc1ccccc1C1CC(c2ccc(C)cc2)=NC1S(=O)(=O)c1ccc(C)cc1 (centres unmarked) [PVZF0091] |  |  | 34.27 | 40.68 |
| Cc1ccccc1S(=O)(=O)CC1CCC(C2CC2)CC1 (centres unmarked) [SA034] | 77.96 | 87.42 |  |  |

| SMILES | Polyglutamine [1, 2] [%] | 8×GTIIC (YAP/TAZ; [3]) [%] | Polyglutamine [1] [%] | 8×GTIIC (YAP/TAZ) [%] |
| --- | --- | --- | --- | --- |
| Cc1ccc(S(=O)(=O)CC2CCC(S(C)(=O)=O)CC2)cc1 (centres unmarked) [SA060] | 92.41 | 90.52 |  |  |
| CCc1ccc(S(=O)(=O)CC2CCC(S(C)(=O)=O)CC2)cc1CC (centres unmarked) [SA063] | 78.75 | 93.35 |  |  |
| CCC(C)(C)c1ccc(S(=O)(=O)CCCC2=CCCCC2)cc1 [PVZF2044] | 45.42 | 55.05 |  |  |
| Cc1ccc(C2=NC(S(C)(=O)=O)C(c3ccc(C)cc3)C2)cc1 (centres unmarked) [PVZF0087] |  |  | 81.35 | 187.1 |
| CCc1cc(CC)cc(C2=NC(S(=O)(=O)c3ccc(C)cc3)C(c3cccc(CC)c3CC)C2)c1 (centres unmarked) [PVZF0055] |  |  | 46.42 | 45.63 |
| O=S(=O)(CC1CCC(S(=O)(=O)c2ccccc2)CC1)c1ccccc1 (centres unmarked) [SA049] | 39.58 | 43.7 |  |  |
| Cc1ccc(S(=O)(=O)CC2CCC(S(C)(=O)=O)CC2)c(C(C)(C)C)c1 (centres unmarked) [SA085] | 86 | 83.09 |  |  |
| O=S(=O)(CC1CCCCC1)c1ccc(-c2ccccc2)cc1 [PVZF2030] | 50.36 | 49.29 |  |  |
| Cc1ccc(C2=NC(S(=O)(=O)c3ccccc3C)C(c3cccc(C)c3)C2)cc1 (centres unmarked) [PVZF0062] |  |  | 54.91 | 73.79 |
| O=S(=O)(CC1CCC(C2CC2)CC1)c1ccc2c(c1)CCCC2 (centres unmarked) [SA038] | 69.77 | 94.4 |  |  |
| CCc1cccc(C2CC(c3cccc(C)c3)=NC2S(=O)(=O)c2ccccc2C)c1CC (centres unmarked) [PVZF0058] |  |  | 54.21 | 66.66 |
| Cc1ccc(C2=NC(S(=O)(=O)c3ccc(C)cc3)C(c3ccccc3C)C2)cc1 (centres unmarked) [PVZF0094] |  |  | 69.05 | 97.79 |
| Cc1ccc(C)c(S(=O)(=O)CC2CCC(S(C)(=O)=O)CC2)c1 (centres unmarked) [SA064] | 54.39 | 64.48 |  |  |
| CCc1ccc(C2=NC(S(=O)(=O)c3ccc(C)cc3)C(c3cccc(CC)c3CC)C2)cc1CC (centres unmarked) [PVZF0081] |  |  | 57.42 | 56.18 |
| Cc1ccc(S(=O)(=O)CC2CCC(S(C)(=O)=O)CC2)cc1 (centres unmarked) [SA062] | 93.21 | 100.9 |  |  |
| Cc1cc(C)c(S(=O)(=O)CC2CC(C)(C)CC(C)(C)C2)cc1C [SA002] | 49.58 | 47.03 |  |  |
| CCCCCCS(=O)(=O)c1ccc2ccccc2c1 [PVZF2011] | 28.85 | 36.2 |  |  |
| CCC(C)(C)c1ccc(S(=O)(=O)CCC2CCCCC2)cc1 [PVZF2042] | 34.02 | 35.98 |  |  |
| CC(C)(C)c1ccccc1S(=O)(=O)CC1CCC(C2CC2)CC1 (centres unmarked) [SA087] | 78.43 | 59.57 |  |  |
| CCCc1ccc(S(=O)(=O)CC2CCC(C3CC3)CC2)cc1 (centres unmarked) [SA039] | 97.44 | 56.65 |  |  |
| Cc1ccc(C2=NC(S(C)(=O)=O)C(c3ccc(C(C)C)cc3)C2)cc1 (centres unmarked) [PVZF0084] |  |  | 71.08 | 146.9 |
| Cc1cc(C)c(C)c(S(=O)(=O)CC2CCC(S(C)(=O)=O)CC2)c1C (centres unmarked) [SA086] | 33.07 | 40.75 |  |  |
| Cc1ccc(S(=O)(=O)CC2CCC(S(C)(=O)=O)CC2)c(C)c1 (centres unmarked) [SA076] | 98.03 | 64.29 |  |  |
| CCCc1ccc(S(=O)(=O)CC2CCC(C3CC3)CC2)cc1OCC (centres unmarked) [SA029] | 58.64 | 65.65 |  |  |
| O=S(=O)(CC1CCCCC1)c1ccc2ccccc2c1 [PVZF2012] | 33.76 | 34.08 |  |  |
| O=S(=O)(CC1CCCC1)c1ccc(-c2ccccc2)cc1 [PVZF2028] | 42.32 | 40.24 |  |  |

Reference: US20230210834A1, “RNA METHYLTRANSFERASE INHIBITOR, SCREENING METHOD THEREFOR, ANTI-CANCER AGENT EFFICACY ASSESSMENT MARKER, AND KIT FOR EFFECTIVELY PREDICTING FTSJ1 INHIBITOR” (National University Corporation Okayama University, priority 2019, published 2023)
